Molecular target: T1, AgrA (Staphylococcus aureus, UniProt P0A0I7)
T1 construct: endogenous in cells; host or cells: S. aureus USA300 strain UAMS-1625 carrying a P3-lacZ reporter plasmid
Test: cell-based
Parameters: species or system S. aureus
Settings: for Ratio IC50 (in presence of HSA)/IC50 (in absence of HSA): 40 mg/mL HSA versus no HSA
Description: The inventive compounds are 3-(phenylsulfonyl)-[1,2,3]triazolo[1,5a]quinazolin-5(4h)-one derivatives comprising an N-bound piperazine or homopiperazine at the 8-position of the [1,2,3]triazolo[1,5a]quinazolin-5(4h)-one core, further substituted (on the second nitrogen atom) by an (optionally substituted) acetyl or propionyl amide group. […] Specifically, the reporter gene lacZ (which encodes the protein product β-galactosidase) was transfected into S. aureus with a plasmid under control of the P3 promoter. The compounds were serially diluted in lysogeny broth (LB), and incubated with S. aureus. Following incubation, the S. aureus cells were lysed and treated with 4-methylumbelliferyl-galactopyranoside (MUG). The β-galactosidase produced by expression of lacZ cleaved the MUG into galactopyranose and 4-methylumbelliferone, which was measured by fluorescence.
The resulting reporter strain was used to measure AgrA inhibitory activity as follows. From an overnight culture plate, cells were resuspended in 0.9% (w/v) saline solution and bacterial inoculum was prepared in LB medium with 5×10^5 CFU/ml. Compounds were two-fold serially diluted in LB and 50 μL of this 10× concentrated samples were added into the 96-deep well plate. 500 μL of bacterial suspension was finally added to the compounds or DMSO control. Plates were covered and incubated with shaking at 37° C. After 18 hours incubation, 100 μL was transferred to a new clear 96-well plate and the OD600 was measured using a TECAN Infinite F200 microplate reader to control for growth inhibition. Another 100 μL was transferred to a new black 96-well plate containing 30 μL of lysis buffer (20 mM Tris/HCl, 3 mM MgCl2, 0.5% Tween 20 (v/v), 0.5% NP-40 (v/v)) and the plate was incubated with shaking at 37° C. for 60 min. 20 μL of the substrate MUG (4-Methylumbelliferyl O-D-galactopyranoside) at 0.25 mg/ml was added and the fluorescence (excitation: 360 nm, emission: 450 mu) was measured with a TECAN Infinite F200 microplate reader after 3 hours incubation at 37° C. with shaking. The IC50 was determined using GraphPad PRISM after normalization to DMSO control.

[1] = IC50 at 40 mg/mL HSA, LB medium supplemented with human serum albumin 40 mg/mL
[2] = IC50 without HSA, LB medium, no human serum albumin, 18 hours incubation
[3] = LB medium supplemented with human serum albumin 40 mg/mL
[4] = LB medium, no human serum albumin, 18 hours incubation

T1 sequence (P0A0I7 whole entry): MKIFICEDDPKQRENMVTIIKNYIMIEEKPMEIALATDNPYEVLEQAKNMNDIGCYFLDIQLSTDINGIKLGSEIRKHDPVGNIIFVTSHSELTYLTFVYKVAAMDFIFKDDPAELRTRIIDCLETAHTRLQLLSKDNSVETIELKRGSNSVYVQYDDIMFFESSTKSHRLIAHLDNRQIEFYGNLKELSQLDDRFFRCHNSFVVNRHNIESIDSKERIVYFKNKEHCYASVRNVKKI

Structure (SMILES)	IC50 [1]	IC50 [2]	other results
Cc1ccc(S(=O)(=O)c2nnn3c2[nH]c(=O)c2ccc(N4CCN(CC(=O)NCCO)CC4)cc23)c(C)c1 [Compound 19]	18.5 to 92.7 µM	< 1.85 µM	–
Cc1ccc(S(=O)(=O)c2nnn3c2[nH]c(=O)c2ccc(N4CCN(CC(=O)NCCCCO)CC4)cc23)c(C)c1 [Compound 20]	17.6 to 88.1 µM	< 1.76 µM	–
Cc1ccc(S(=O)(=O)c2nnn3c2[nH]c(=O)c2ccc(N4CCN(CC(=O)NCCOCCO)CC4)cc23)c(C)c1 [Compound 21]	17.1 to 85.7 µM	< 1.71 µM	–
Cc1ccc(S(=O)(=O)c2nnn3c2[nH]c(=O)c2ccc(N4CCN(CC(=O)NCCOCCOCCO)CC4)cc23)c(C)c1 [Compound 22]	15.9 to 79.7 µM	1.59 to 7.97 µM	–
C#CCNC(=O)CN1CCN(c2ccc3c(=O)[nH]c4c(S(=O)(=O)c5ccc(C)cc5C)nnn4c3c2)CC1 [Compound 23]	< 18.7 µM	1.87 to 9.37 µM	–
CCCNC(=O)CN1CCCN(c2ccc3c(=O)[nH]c4c(S(=O)(=O)c5ccc(C)cc5C)nnn4c3c2)CC1 [Compound 30]	18.1 to 90.6 µM	< 1.81 µM	–
COCCNC(=O)CN1CCCN(c2ccc3c(=O)[nH]c4c(S(=O)(=O)c5ccc(C)cc5C)nnn4c3c2)CC1 [Compound 31]	–	–	Ratio IC50 (in presence of HSA)/IC50 (in absence of HSA): +++ (+++: ratio ≤ 25); IC50 at 40 mg/mL HSA [3]: +++ (+++: IC50 ≤ 10 μg/mL); IC50 without HSA [4]: +++ (+++: IC50 ≤ 1 μg/mL)
Cc1ccc(S(=O)(=O)c2nnn3c2[nH]c(=O)c2ccc(N4CCCN(CC(=O)NCCO)CC4)cc23)c(C)c1 [Compound 32]	18.1 to 90.3 µM	1.81 to 9.03 µM	–
Cc1ccc(S(=O)(=O)c2nnn3c2[nH]c(=O)c2ccc(N4CCN(CC(=O)NC5CC5)CC4)cc23)c(C)c1 [Compound 33]	18.7 to 93.3 µM	< 1.87 µM	–
Cc1ccc(S(=O)(=O)c2nnn3c2[nH]c(=O)c2ccc(N4CCN(CC(=O)NC5CCC5)CC4)cc23)c(C)c1 [Compound 34]	18.2 to 91 µM	< 1.82 µM	–
Cc1ccc(S(=O)(=O)c2nnn3c2[nH]c(=O)c2ccc(N4CCN(CC(=O)NC5CCCC5)CC4)cc23)c(C)c1 [Compound 35]	< 17.7 µM	< 1.77 µM	–
Cc1ccc(S(=O)(=O)c2nnn3c2[nH]c(=O)c2ccc(N4CCN(CC(=O)NCC5CC5)CC4)cc23)c(C)c1 [Compound 36]	18.2 to 91 µM	< 1.82 µM	–
Cc1ccc(S(=O)(=O)c2nnn3c2[nH]c(=O)c2ccc(N4CCN(CC(=O)NCC5CCCC5)CC4)cc23)c(C)c1 [Compound 37]	< 17.3 µM	< 1.73 µM	–
Cc1ccc(S(=O)(=O)c2nnn3c2[nH]c(=O)c2ccc(N4CCN(CC(=O)NC5CCCCC5)CC4)cc23)c(C)c1 [Compound 38]	17.3 to 86.5 µM	< 1.73 µM	–
Cc1ccc(S(=O)(=O)c2nnn3c2[nH]c(=O)c2ccc(N4CCN(CC(=O)N(C)C5CCCCC5)CC4)cc23)c(C)c1 [Compound 39]	16.9 to 84.5 µM	< 1.69 µM	–
Cc1ccc(S(=O)(=O)c2nnn3c2[nH]c(=O)c2ccc(N4CCN(CC(=O)NCC5CCCCC5)CC4)cc23)c(C)c1 [Compound 40]	< 16.9 µM	< 1.69 µM	–
Cc1ccc(S(=O)(=O)c2nnn3c2[nH]c(=O)c2ccc(N4CCN(CC(=O)NC5CCC(N(C)C)CC5)CC4)cc23)c(C)c1 (stereo not drawn) [Compound 42]	16.1 to 80.5 µM	< 1.61 µM	–
Cc1ccc(S(=O)(=O)c2nnn3c2[nH]c(=O)c2ccc(N4CCN(CC(=O)NC5CCC(O)CC5)CC4)cc23)c(C)c1 (stereo not drawn) [Compound 43]	< 16.8 µM	< 1.68 µM	–
Cc1ccc(S(=O)(=O)c2nnn3c2[nH]c(=O)c2ccc(N4CCN(CC(=O)NCCCC5CCCCC5)CC4)cc23)c(C)c1 [Compound 44]	16.1 to 80.7 µM	1.61 to 8.07 µM	–
Cc1ccc(S(=O)(=O)c2nnn3c2[nH]c(=O)c2ccc(N4CCC4)cc23)c(C)c1 [Compound 45 of WO 2020/109350, reference compound]	> 122 µM	< 2.44 µM	Ratio IC50 (in presence of HSA)/IC50 (in absence of HSA): + (+: ratio > 125); IC50 (IC50 in the presence of 40 mg/mL HSA, 40 mg/mL HSA, highest concentration tested 128 μg/mL): > 313 µM; IC50 (concentration inhibiting the expression of lacZ in the absence of HSA, absence of HSA): < 2.44 µM
Cc1ccc(S(=O)(=O)c2nnn3c2[nH]c(=O)c2ccc(N4CCCN(CC(=O)NC5CCC5)CC4)cc23)c(C)c1 [Compound 51]	17.7 to 88.7 µM	< 1.77 µM	–

Structure (SMILES)	IC50 [1]	IC50 [2]	other results
Cc1ccc(S(=O)(=O)c2nnn3c2[nH]c(=O)c2ccc(N4CCCN(CC(=O)NC5CCCC5)CC4)cc23)c(C)c1 [Compound 52]	17.3 to 86.5 µM	1.73 to 8.65 µM	–
Cc1ccc(S(=O)(=O)c2nnn3c2[nH]c(=O)c2ccc(N4CCCN(CC(=O)NC5CCCCC5)CC4)cc23)c(C)c1 [Compound 53]	–	–	Ratio IC50 (in presence of HSA)/IC50 (in absence of HSA): +++ (+++: ratio ≤ 25); IC50 at 40 mg/mL HSA [3]: ++ (++: 10 μg/mL < IC50 ≤ 50 μg/mL); IC50 without HSA [4]: ++ (++: 1 μg/mL < IC50 ≤ 5 μg/mL)
Cc1ccc(S(=O)(=O)c2nnn3c2[nH]c(=O)c2ccc(N4CCN(CC(=O)N5CCC5)CC4)cc23)c(C)c1 [Compound 54]	18.7 to 93.3 µM	< 1.87 µM	–
Cc1ccc(S(=O)(=O)c2nnn3c2[nH]c(=O)c2ccc(N4CCN(CC(=O)N5CCCCC5)CC4)cc23)c(C)c1 [Compound 55]	17.7 to 88.7 µM	< 1.77 µM	–
Cc1ccc(S(=O)(=O)c2nnn3c2[nH]c(=O)c2ccc(N4CCN(CC(=O)N5CCCCCC5)CC4)cc23)c(C)c1 [Compound 56]	–	–	Ratio IC50 (in presence of HSA)/IC50 (in absence of HSA): ++ (++: 25 < ratio ≤ 125); IC50 at 40 mg/mL HSA [3]: ++ (++: 10 μg/mL < IC50 ≤ 50 μg/mL); IC50 without HSA [4]: +++ (+++: IC50 ≤ 1 μg/mL)
Cc1ccc(S(=O)(=O)c2nnn3c2[nH]c(=O)c2ccc(N4CCN(CC(=O)N5CCCOCC5)CC4)cc23)c(C)c1 [Compound 57]	17.3 to 86.3 µM	< 1.73 µM	–
Cc1ccc(S(=O)(=O)c2nnn3c2[nH]c(=O)c2ccc(N4CCN(CC(=O)N5CCN(C)CC5)CC4)cc23)c(C)c1 [Compound 58]	17.3 to 86.4 µM	< 1.73 µM	–
Cc1ccc(S(=O)(=O)c2nnn3c2[nH]c(=O)c2ccc(N4CCN(CC(=O)N5CCN(C(C)(C)C)CC5)CC4)cc23)c(C)c1 [Compound 59]	< 16.1 µM	1.61 to 8.05 µM	–
Cc1ccc(S(=O)(=O)c2nnn3c2[nH]c(=O)c2ccc(N4CCN(CC(=O)N5CCN(C6CC6)CC5)CC4)cc23)c(C)c1 [Compound 60]	< 16.5 µM	< 1.65 µM	–
Cc1ccc(S(=O)(=O)c2nnn3c2[nH]c(=O)c2ccc(N4CCN(CC(=O)N5CCNC(=O)C5)CC4)cc23)c(C)c1 [Compound 62]	17.3 to 86.4 µM	1.73 to 8.64 µM	–
Cc1ccc(S(=O)(=O)c2nnn3c2[nH]c(=O)c2ccc(N4CCN(CC(=O)N5CCC(F)(F)CC5)CC4)cc23)c(C)c1 [Compound 64]	16.7 to 83.4 µM	< 1.67 µM	–
Cc1ccc(S(=O)(=O)c2nnn3c2[nH]c(=O)c2ccc(N4CCN(CC(=O)N5CCC(N(C)C)CC5)CC4)cc23)c(C)c1 [Compound 65]	< 16.5 µM	1.65 to 8.24 µM	–
Cc1ccc(S(=O)(=O)c2nnn3c2[nH]c(=O)c2ccc(N4CCN(CC(=O)N5CCCC(O)C5)CC4)cc23)c(C)c1 (stereo not drawn) [Compound 67]	17.3 to 86.3 µM	1.73 to 8.63 µM	–
Cc1ccc(S(=O)(=O)c2nnn3c2[nH]c(=O)c2ccc(N4CCN(CC(=O)N5CCCN(C)CC5)CC4)cc23)c(C)c1 [Compound 69]	< 16.9 µM	1.69 to 8.44 µM	–
Cc1ccc(S(=O)(=O)c2nnn3c2[nH]c(=O)c2ccc(N4CCN(CC(=O)N5CCCN(C(C)C)CC5)CC4)cc23)c(C)c1 [Compound 70]	16.1 to 80.5 µM	< 1.61 µM	–
Cc1ccc(S(=O)(=O)c2nnn3c2[nH]c(=O)c2ccc(N4CCN(CC(=O)N5CCCN(CCO)CC5)CC4)cc23)c(C)c1 [Compound 71]	16.1 to 80.3 µM	1.61 to 8.03 µM	–
Cc1ccc(S(=O)(=O)c2nnn3c2[nH]c(=O)c2ccc(N4CCN(CC(=O)N5CCCC(=O)CC5)CC4)cc23)c(C)c1 [Compound 72]	16.9 to 84.5 µM	< 1.69 µM	–
Cc1ccc(S(=O)(=O)c2nnn3c2[nH]c(=O)c2ccc(N4CCN(CC(=O)N5CC(C6CC6)C5)CC4)cc23)c(C)c1 [Compound 73]	17.4 to 86.9 µM	< 1.74 µM	–
Cc1ccc(S(=O)(=O)c2nnn3c2[nH]c(=O)c2ccc(N4CCN(CC(=O)N5C(C)CCC5C)CC4)cc23)c(C)c1 (stereo not drawn) [Compound 74]	–	–	Ratio IC50 (in presence of HSA)/IC50 (in absence of HSA): +++ (+++: ratio ≤ 25); IC50 at 40 mg/mL HSA [3]: ++ (++: 10 μg/mL < IC50 ≤ 50 μg/mL); IC50 without HSA [4]: +++ (+++: IC50 ≤ 1 μg/mL)
Cc1ccc(S(=O)(=O)c2nnn3c2[nH]c(=O)c2ccc(N4CCN(CC(=O)N5CCC(O)C5)CC4)cc23)c(C)c1 (stereo not drawn) [Compound 75]	–	–	Ratio IC50 (in presence of HSA)/IC50 (in absence of HSA): +++ (+++: ratio ≤ 25); IC50 at 40 mg/mL HSA [3]: ++ (++: 10 μg/mL < IC50 ≤ 50 μg/mL); IC50 without HSA [4]: ++ (++: 1 μg/mL < IC50 ≤ 5 μg/mL)
